Patent US7279548B2, “Identification and isolation of novel polypeptides having WW domains and methods of using same” (Cytogen Corporation, priority 1996, dated 2007)
No end group written: not given here. *: point of attachment. Biotin = O=C1N[C@H]2[C@H](CS[C@H]2CCCCC(=O)*)N1

Tests used:
Format in all cases: binding, human
[1] = tested on: WW domains of WWP1 expressed as GST fusion proteins; assay: ELISA based cross affinity mapping, WW domains of WWP1; conditions: biotinylated peptide-streptavidin/alkaline phosphatase complex; GST fusion proteins; ELISA
Method: (§1) The 16 day mouse embryo cDNA expression library was diluted 1:1000 in SM solution (100 mM NaCl, 8 mM MgSOv4, 50 mM Tris HCl pH 7.5, 0.01% gelatin). To a sterile test tube, 2 μl of diluted mouse embryo library, 100 μl of 10 mM CaCl2, 100 μl of 10 mM MgCl2 and 100 μl of BL21(DE3)pLysE bacterial cells (grown overnight) were added and incubated for 30 minutes at 37° C. The contents of the tube were mixed with 3 ml of 0.6% top agarose, containing […] chloramphenicol, and poured onto a 2xYT plate (90 mm diameter). For a large primary screen, 10–20 plates were prepared with 3×10^4 pfu per plate. After 6 hours incubation at 37° C., a nitrocellulose filter soaked in 10 mM isopropyl-β-D-thiogalactopyranoside (IPTG) was overlaid on each plate and incubated 3–6 hours at 37° C. Before the filters were removed from the plates, they were marked asymmetrically with India ink in a 18 gauge syringe needle. The plates were stored at 4° C. until ready for the secondary screen. The filters were washed with PBS (137 mM NaCl, 2.7 mM KCl, 4.3 mM Na2HPO4, 1.4 mM KH2PO4)-0.05% Triton X-100 three times at room temperature, 15 minutes each wash, and then placed in a plastic bag containing non-specific blocking solution (PBS-2% BSA) for one hour. In the meantime, 1 ml of 1 mM biotinylated peptide in PBS-0.1% Tween 20 was added to 20 ml of 1 mg/ml streptavidin-alkaline phosphatase (SA-AP) in PBS-0.1% Tween 20 and incubated at 4° C. for 30 minutes. […] Excess biotin-binding sites would then be blocked by addition of 500 pmol biotin. […] Ten μl of 0.1 mM biotin would then be added, and the solution incubated for an additional 15 min.
(§2) To determine the ligand preferences of the novel WW omain-containing clones described in Sections 6.1 and 6.1.1, as well as addressing the issue of whether peptides containing PPPPY (SEQ ID NO:3)-like motifs derived from a variety of proteins could also serve as recognition units and bind to these clones, a cross affinity mapping experiment was performed (FIGS. 15A–D). The peptides shown in FIGS. 15A–D were synthesized, biotinylated, complexed with streptavidin-alkaline phosphatase, and tested in an ELISA based assay for their ability to bind to the twelve individual novel WW domains of WWP1, WWP2, WWP3 and WWP4 which were expressed as GST fusion proteins. The ELISA based cross-affinity experiments were performed essentially as described by Sparks et al. (1996, Proc. Natl. Acad. Sci. 93:1540–1544) with the following modifications. Briefly, microtiter wells were coated with 1–5 μg of fusion protein in 100 mM NaHCO3, blocked with SuperBlock TBS (Pierce) and washed four times with PBS, 0.05% Tween 20. Specific peptide-streptavidin/alkaline phosphatase complexes were added as above and unbound complexes washed five times with PBS, 0.05% Tween 20. Following addition of PNP substrate (p-nitrophenyl phosphate, Kirkegard & Perry Labs), peptide binding was quantitated after 30 min. at O.D. 405 nm. Relative binding measurements from three independent determinations were assigned to a scale as follows: O.D. units 0–0.5=(−), 0.5–1.0=(+), 1.0–2.0=(++), 2.0–3.0=(+++), >3.0=(++++). Peptide binding to human Fyn and Lyn SH3 and SH2 domains was assessed by a filter binding assay (see Section 6.1 and Sparks et al., 1996, Proc. Natl. Acad. Sci 93:1540–1544). Peptide sequences used in cross-affinity experiments correspond to segments of the following genes: RasGap (Database accession # P20936), AP-2 (P05549), p53BP-2 (U09582), IL-6Rα (P22272), voltage-gated chloride channel CLCN5 (X91906), IL-2Rγ (D111086), RSV (D10652), HTLV-1 (D13784), β-dystroglycan (L19711), Formin (X53599), amiloride-sensitive epithelial Na^+ channel ENaCα (P37089), ENaCβ (X87159) and ENaCγ (X87160), muscarinic acetylcholine receptor M4 AChR (P08173), and c-Abl (P00522). Src and Crk SH3 binding peptide sequences were derived from a phage display random peptide library screen (Section 6.1 and Sparks et al., 1996, Proc. Natl. Acad. Sci. 93:1540–1544).

[2] = tested on: WW domains of WWP2 expressed as GST fusion proteins; assay: ELISA based cross affinity mapping, WW domains of WWP2; conditions: biotinylated peptide-streptavidin/alkaline phosphatase complex; GST fusion proteins; ELISA
Method: as §1, §2

[3] = tested on: WW domains of WWP4 expressed as GST fusion proteins; assay: ELISA based cross affinity mapping, WW domains of WWP4; conditions: biotinylated peptide-streptavidin/alkaline phosphatase complex; GST fusion proteins; ELISA
Method: as §1, §2

[4] = tested on: twelve individual novel WW domains of WWP1, WWP2, WWP3 and WWP4; assay: ELISA based cross affinity mapping, whole panel of novel WW domains; conditions: biotinylated peptide-streptavidin/alkaline phosphatase complex, GST fusion proteins
Method: as §1, §2

Row | Substance | binding to WW domains of WWP1 [1] | binding to WW domains of WWP2 [2] | binding to WW domains of WWP4 [3] | binding to the novel WW domains (WWP1, WWP2, WWP3, WWP4 panel) [4]
1 | Biotin-SGSGPGTPPPPYTVGPGY [WBP-1] | specifically bind | specifically bind | specifically bind | bound to several individual WW domains to varying degrees
2 | Biotin-SGSGPGTPYPPPPEFY [WBP-2B] | none of the WW domains of these proteins specifically bind | none of the WW domains of these proteins specifically bind | none of the WW domains of these proteins specifically bind | no binding activity
3 | Biotin-SGSGYVQPPPPPYPGPM [WBP-2A] | specifically bind | specifically bind | specifically bind | bound to several individual WW domains to varying degrees
